Data taken from patent US3995059A, “Pharmaceutical compositions containing fatty acid amide derivatives” (Sumitomo Chemical Company, Limited, priority 1966, dated 1976).

Assays:
liver cholesterol = assay: Liver cholesterol (deposition of cholesterol and fat in the liver) of mice fed a cholesterol-rich diet (Table 1); type: in vivo; conditions: for Liver cholesterol: 0.2% in diet, oral, 8 to 12 days
[1] = system: total cholesterol value in the blood serum; assay: Total cholesterol in blood serum of mice fed a diet enriched with cholesterol and bile acids (Table 1); type: in vivo; conditions: 0.2% in diet, 8 to 12 days; for Serum cholesterol: oral
Protocol: The effectiveness of the compounds was tested by using mice fed on a specific diet which was enriched with cholesterol and bile acids. […] The amide compound as well was mixed with the specific diet in an amount of 0.2%, and continuously administered orally for 8 to 12 days. Then the total cholesterol value in the blood serum of the animals was evaluated.

[2] = experiment [VIII], control 2652

CCCCC/C=C\C/C=C\CCCCCCCC(=O)NC(C)c1ccc(C)cc1 (centres unmarked) [drawing 23] showed a Liver cholesterol (liver cholesterol; experiment [IV], control 3145) of 828 mg/100 g and a Serum cholesterol ([1]; experiment [IV], control 595) of 240 mg %.

For CCCCC/C=C\C/C=C\CCCCCCCC(=O)NC(C)c1cccc([N+](=O)[O-])c1 (centres unmarked), the Liver cholesterol (liver cholesterol; [2]) was 992 mg/100 g and the Serum cholesterol ([1]; experiment [VIII], control 472) was 287 mg %.

CCCCCC=CCC=CCCCCCCCC(=O)NC(Cc1ccccc1)c1ccccc1 (stereo not drawn) [d- C17 H31 CO] was tested, and the Liver cholesterol (liver cholesterol; experiment [V], control 2640) was 500 mg/100 g and the Serum cholesterol ([1]; experiment [V], control 372) was 200 mg %.

Work on CCCCCCCC/C=C\CCCCCCCC(=O)NC(CC)c1cccc([N+](=O)[O-])c1 (centres unmarked) [drawing 81] yielded a Liver cholesterol (liver cholesterol; experiment [XI], control 3451) of 906 mg/100 g and a Serum cholesterol ([1]; experiment [XI], control 595) of 289 mg %.

With CC/C=C\C/C=C\C/C=C\CCCCCCCC(=O)NC(C)c1cccc(Cl)c1 (centres unmarked) [drawing 95] the Liver cholesterol (liver cholesterol; experiment [XI], control 3451) was 995 mg/100 g and the Serum cholesterol ([1]; experiment [XI], control 595) was 275 mg %.

For CCCCC/C=C\C/C=C\CCCCCCCC(=O)O [Linoleic acid, reference compound], the “prevention of deposition of cholesterol and fat in the liver” value (liver cholesterol; animals fed on a diet rich in cholesterol) was “such effectiveness is never observed”, the Liver cholesterol (liver cholesterol; experiment [II], control 3308) was 4491 mg/100 g and the Liver cholesterol (liver cholesterol; experiment [I], control 3585) was 4585 mg/100 g. The Liver cholesterol (liver cholesterol; experiment [VII], control 3535) was 4550 mg/100 g, the Liver cholesterol (liver cholesterol; experiment [V], control 2640) was 3124 mg/100 g and the Serum cholesterol ([1]; experiment [II], control 521) was 329 mg %. The Serum cholesterol ([1]; experiment [I], control 546) was 324 mg %, the Serum cholesterol ([1]; experiment [VII], control 508) was 341 mg % and the Serum cholesterol ([1]; experiment [V], control 372) was 351 mg %. The “ineffective cases and variation of effectiveness” value ([1]; mice) was “ineffective cases were sometimes observed due to the individual difference of the animals, and the effectiveness varied considerably even in the same individual animal”.

In the case of CCCCCCCC/C=C\CCCCCCCC(=O)NC(C)c1ccccc1 (centres unmarked) [drawing 8], the Liver cholesterol (liver cholesterol; experiment [II], control 3308) is reported as 1330 mg/100 g and the Serum cholesterol ([1]; experiment [II], control 521) is reported as 295 mg %.

Compound CC/C=C\C/C=C\C/C=C\CCCCCCCC(=O)NC12CC3CC(CC(C3)C1)C2 has a Liver cholesterol (liver cholesterol; experiment [IX], control 2200) of 750 mg/100 g and a Serum cholesterol ([1]; experiment [IX], control 336) of 279 mg %.

In the case of CCCCC/C=C\C/C=C\CCCCCCCC(=O)NC(C)c1ccc([N+](=O)[O-])cc1 (centres unmarked) [drawing 44], the Liver cholesterol (liver cholesterol; [2]) is reported as 1603 mg/100 g and the Serum cholesterol ([1]; experiment [VIII], control 472) is reported as 340 mg %.

In the case of CCCCCCCCCCCCCC(=O)NC(C)c1ccccc1 (centres unmarked) [drawing 9], the Liver cholesterol (liver cholesterol; experiment [II], control 3308) is reported as 1620 mg/100 g and the Serum cholesterol ([1]; experiment [II], control 521) is reported as 302 mg %.

For CC(C)CCCCCCCCCCCCCCC(=O)NC(C)c1ccccc1 (single isomer, unassigned; (-)) [(-) (α-Methylbenzyl)-isostearamide], the Liver cholesterol (liver cholesterol; experiment [II], control 3308) was 777 mg/100 g and the Serum cholesterol ([1]; experiment [II], control 521) was 246 mg %.

In the case of CCCCCCCC/C=C\CCCCCCCC(=O)NC(C)c1ccc(OC)cc1 (centres unmarked) [drawing 84], the Liver cholesterol (liver cholesterol; experiment [XI], control 3451) is reported as 1069 mg/100 g and the Serum cholesterol ([1]; experiment [XI], control 595) is reported as 306 mg %.

CC/C=C\C/C=C\C/C=C\CCCCCCCC(=O)NC(CC)c1ccc([N+](=O)[O-])cc1 (centres unmarked) [drawing 98] gave a Liver cholesterol (liver cholesterol; experiment [XI], control 3451) of 1325 mg/100 g and a Serum cholesterol ([1]; experiment [XI], control 595) of 365 mg %.

In the case of CCCCCCCC/C=C\CCCCCCCC(=O)NC(C)c1ccccc1 (single isomer, unassigned; (-)) [(-) (α-Methylbenzyl)-oleamide], the Liver cholesterol (liver cholesterol; experiment [II], control 3308) is reported as 808 mg/100 g and the Serum cholesterol ([1]; experiment [II], control 521) is reported as 283 mg %.

CCCCCCCC/C=C\CCCCCCCC(=O)NC(C)c1ccc(Br)cc1 (centres unmarked) [drawing 78] showed a Liver cholesterol (liver cholesterol; experiment [XI], control 3451) of 921 mg/100 g and a Serum cholesterol ([1]; experiment [XI], control 595) of 253 mg %.

In the case of CCCCC/C=C\C/C=C\CCCCCCCC(=O)NC(C)c1ccc(Cl)cc1 (centres unmarked) [drawing 25], the Liver cholesterol (liver cholesterol; experiment [IV], control 3145) is reported as 826 mg/100 g and the Serum cholesterol ([1]; experiment [IV], control 595) is reported as 217 mg %.

Work on CC(C)CCCCCCCCCCCCCCC(=O)NC(C)c1ccccc1 (single isomer, unassigned; (+)) [(+) N-(α-Methylbenzyl)-isostearamide] yielded a Liver cholesterol (liver cholesterol; experiment [I], control 3585) of 761 mg/100 g and a Serum cholesterol ([1]; experiment [I], control 546) of 251 mg %.

Work on CC(C)CCCCCCCCCCCCCCC(=O)NC(Cc1ccccc1)c1ccccc1 (centres unmarked) [iso-C17 H35 CO] yielded a Liver cholesterol (liver cholesterol; experiment [V], control 2640) of 609 mg/100 g and a Serum cholesterol ([1]; experiment [V], control 372) of 221 mg %.

CCCCCCCC/C=C\CCCCCCCC(=O)NC(Cc1ccccc1)c1ccccc1 (stereo not drawn) [l- drawing 33] gave a Liver cholesterol (liver cholesterol; experiment [V], control 2640) of 888 mg/100 g and a Serum cholesterol ([1]; experiment [V], control 372) of 263 mg %.

CC/C=C\C/C=C\C/C=C\CCCCCCCC(=O)NC(C)c1ccc(C)cc1 (centres unmarked) [drawing 66] was tested, and the Liver cholesterol (liver cholesterol; experiment [X], control 3293) was 1000 mg/100 g and the Serum cholesterol ([1]; experiment [X], control 554) was 249 mg %.

For CC/C=C\C/C=C\C/C=C\CCCCCCCC(=O)NC(CC)c1ccccc1[N+](=O)[O-] (centres unmarked), the Liver cholesterol (liver cholesterol; [2]) was 1091 mg/100 g and the Serum cholesterol ([1]; experiment [VIII], control 472) was 300 mg %.

CCCCC/C=C\C/C=C\CCCCCCCC(=O)NC(C)c1ccc(Cl)cc1 (centres unmarked) [drawing 17] was tested, and the Liver cholesterol (liver cholesterol; experiment [III], control not given) was 946 mg/100 g and the Serum cholesterol ([1]; experiment [III], control 471) was 225 mg %.

For CC/C=C\C/C=C\C/C=C\CCCCCCCC(=O)NC(CC)c1ccc(OC)cc1 (centres unmarked) [drawing 102], the Liver cholesterol (liver cholesterol; experiment [XI], control 3451) was 870 mg/100 g and the Serum cholesterol ([1]; experiment [XI], control 595) was 280 mg %.

Compound CCCCCCCC/C=C\CCCCCCCC(=O)NC(C)c1ccccc1[N+](=O)[O-] (centres unmarked) has a Liver cholesterol (liver cholesterol; [2]) of 1113 mg/100 g and a Serum cholesterol ([1]; experiment [VIII], control 472) of 309 mg %.
